Experimental data as given in US20230285347A1, “Preterm Labour with Prostaglandin E2 Receptor Agonists” (IMPERIAL COLLEGE INNOVATIONS LIMITED, priority 2020, published 2023).

Columns and labels:
Assay type in all cases: cell-based
[1] = target: T1, human FLAG-EP2 (Homo sapiens, UniProt P43116); test: Intracellular Ca2+ release in HEK 293 cells stably expressing EP2 (Fluo-4, confocal; Gαq/11 readout); conditions: HEK 293 EP2 cells; butaprost 10 μM, AH13205 10 μM, PGN9856i 100 nM; vs vehicle; FIG. 3
T1 construct: FLAG; expressed in transfected cells
Method: To measure Gαq/11 activation, HEK 293 cells stably expressing human FLAG-EP2 were pre-labelled with a Ca2+ indicator dye and acutely stimulated with each ligand.
HEK 293 cells, prepared following the same methodology as outlined in Example 1, were seeded onto Mattek dishes with 14 mm by 1.5 mm glass coverslips. Cells were incubated with Fluo-4am Ca2+ indicator (ThermoFisher) as per manufacturer's instructions. […]. Time-series images were acquired using a Leica SP5 confocal microscope, Leica LAS AF image acquisition software and a 488 nm excitation laser. HEK cells were imaged using a 10× dry objective. EP2 agonists (butaprost 10 μM, AH13205 10 μM or PGN9856i 100 nM) were added following measurement of basal fluorescence. Raw files were analysed using Fiji Time series analyser plugin to find the maximal fluorescent intensity, which was then averaged across cells in each condition.
The maximal fluorescence intensity was measured by live confocal microscopy.

[2] = target: T1, human FLAG-EP2; test: PGE2 release by ELISA in HEK 293 cells stably expressing EP2; conditions: HEK 293 EP2 cells; 6 hours; butaprost 10 μM, AH13205 10 μM, PGN9856i 100 nM; FIG. 4
Method: COX-2 is an inflammatory mediator that drives PGE2 production. The inventors had previously shown EP2-dependent COX-2 release to be downstream of Ca2+ release in primary human myometrium and that 6-hour agonist treatment is necessary for increasing COX-2 levels and PGE2 secretion (Kandola et al, 2014). HEK 293 cells stably expressing human FLAG-EP2 were stimulated for 6 hours with an EP2 agonist (butaprost 10 μM, AH13205 10 μM or PGN9856i 100 nM) or DMSO. 1 mL media was collected from COX-2 experiments and immediately frozen at −80 degrees Celsius. […]

[3] = target: T2, EP2 (Homo sapiens, UniProt P43116); test: Intracellular cAMP in primary human myocytes from term pregnant non-labouring myometrium; conditions: butaprost 10 μM, AH13205 10 μM, PGN9856i 100 nM, FIG. 5
T2 construct: primary human myocytes cultured from term pregnant, non-labouring, myometrium; endogenous in cells; host or cells: primary human myometrial cells (myocytes) cultured from pregnant myometrium
Method: In the myometrium EP2 is an important regulator of parturition. To assess if PGN9856i, butaprost and AH13205 induce similar second messenger profiles in the myometrium as HEK 293 cells, primary human myocytes cultured from term pregnant, non-labouring, myometrium, were treated with each ligand and intracellular cAMP, calcium and PGE2 release was measured.
Myometrial tissue was acquired at St. Mary's hospital, Queen Charlotte and Chelsea hospital and Charing Cross hospital, London. Tissue was obtained from women provided with informed written consent with the approval from the Riverside Research Ethics Committee (RREC 3357, 1997-5089, 19/LO/1657) and experiments were carried out under the committee's guidelines and recommendations. Tissues were obtained from term (38+0-40 weeks gestation) pregnant women undergoing elective caesarean from the upper margin of the incision made at the lower segment of the uterus, before or after the onset of labor. Tissues taken from women in early labour (<3 cm cervical dilation) or late labour (>3 cm cervical dilation) with/without induction with syntocinon, an oxytocin analogue. Tissue was only taken from uncomplicated, singleton pregnancies.
Tissue was stored at 4° C. in phosphate buffered saline until fine dissection with scalpels and dissociation at 37° C. for 1 hour in a sterile-filtered mix of Dulbecco's modified Eagle's medium (DMEM) (Sigma Aldrich)/Ham's F-12 Nutrient Mixture (Sigma Aldrich) and serum-free DMEM (Sigma Aldrich) (1:1 v/v) containing collagenase 1A (Sigma Aldrich)(1 mg/ml), collagenase X (Sigma Aldrich)(1 mg/ml) and bovine serum albumin (Sigma Aldrich) (2 mg/ml). […]
Confluent myometrial cells were treated with/without OT (100 nM) for 1 hour before 3 PBS washes and the addition of […] IBMX (3-isobutyl-1-methylxanthine) in PBS for 5 minutes at 37° C. […] Lysates were normalized to protein concentration determined by Coomassie (Bradford) Protein Assay Kit and analysed as per manufacturers' protocol (Cisbio Gαs dynamic assay) using a PHERAstar FSX.

[4] = target: T2, EP2; test: PGE2 release in myometrial cells with/without oxytocin pre-treatment; conditions: for effect of OT pre-treatment on ligand-induced PGE2 release: OT 1 hour, 100 nM, then ligand 6 hours, butaprost 10 μM, PGN9856i 100 nM, FIG. 12
Method: Myometrial cells stimulated with either DMSO, butaprost (10 μM), AH13205 (10 μM) or PGN9856i (100 nM) for 6 hours, with/without OT pre-treatment (1 hour, 100 nM). Tissue culture media collected and used for ELISA. PGE2 concentrations normalised to butaprost. Data shown as mean±SEM from at least 3 independent experiments. One-way ANOVA with Dunnett's multiple comparison post-hoc test. One-sample t-test: *p<0.05.
Myometrial cells stimulated with DMSO or PGN9856i (100 nM) for 6 hours, with/without OT pre-treatment (1 hour, 100 nM). Tissue culture media collected and used for ELISA. PGE2 concentrations normalised to vehicle. Data shown as mean±SEM from at least 3 independent experiments. Unpaired t-test: *p<0.05.
Myometrial cells were treated for 6-hours with EP2 agonist (butaprost 10 μM, AH13205 10 μM or PGN9856i 100 nM) or DMSO with/without 1-hour OT (100 nM) pre-treatment. 1 mL media was collected from COX-2 experiments and immediately frozen at −80 degrees Celsius. Samples were defrosted at room temperature and vortexed before quantification of IL-6 concentrations via ELISA as per manufacturer's instructions (Enzo Lifesciences).

T1 sequence (P43116 whole entry): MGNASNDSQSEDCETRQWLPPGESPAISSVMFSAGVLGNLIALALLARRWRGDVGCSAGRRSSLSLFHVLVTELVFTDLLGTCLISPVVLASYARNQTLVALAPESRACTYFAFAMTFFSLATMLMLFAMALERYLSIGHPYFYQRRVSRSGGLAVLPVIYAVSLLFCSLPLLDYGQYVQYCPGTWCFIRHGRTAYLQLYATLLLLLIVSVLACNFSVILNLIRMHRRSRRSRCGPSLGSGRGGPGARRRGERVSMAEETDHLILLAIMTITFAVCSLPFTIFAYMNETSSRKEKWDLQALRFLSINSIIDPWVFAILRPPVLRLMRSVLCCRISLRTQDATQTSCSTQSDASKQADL
T2 sequence (P43116 whole entry): as above

effect of OT pre-treatment on ligand-induced PGE2 release [4] | Compound | intracellular Ca2+ release (maximal fluorescence intensity) [1] | PGE2 levels [2] | release of intracellular cAMP [3] | effect on OT-mediated PGE2 release ([4]; myometrial cells treated with OT (100 nM, 1 hour), then PGN9856i 100 nM for 6 hours, FIG. 13)
unchanged by OT pre-treatment | CC(C)OC(=O)COc1cccc(NC(=O)c2cc(-c3cccc(F)c3)ccc2F)c1 [PGN9856i, propan-2-yl 2-(3-{3′,4-difluoro-[1,1′-biphenyl]-3-amido}phenoxy)acetate] | unable to elicit intracellular Ca2+ release | unable to increase PGE2 levels over basal levels | able to elicit release of intracellular cAMP | significantly reduce OT-mediated PGE2 release
significantly increased by OT | CCCC1([C@H](O)C/C=C/[C@H]2[C@H](O)CC(=O)[C@@H]2CCCCCCC(=O)OC)CCC1 [butaprost] | enhanced Ca2+ significantly above vehicle | efficacious activators of the pathway | able to elicit release of intracellular cAMP | 
